Calls of active or inactive are those of the source. The rule behind the calls is not given here.
Tested on: CCRIS mutagenicity, Ames/micronucleus/aberration tests
Test: CCRIS mutagenicity studies
[1] = Test System: AMES SALMONELLA TYPHIMURIUM, Strain/Indicator: TA98, Metabolic Activation: NONE, Method: PREINCUBATION
[2] = Test System: AMES SALMONELLA TYPHIMURIUM, Strain/Indicator: TA100, Metabolic Activation: NONE, Method: PREINCUBATION
[3] = Test System: AMES SALMONELLA TYPHIMURIUM, Strain/Indicator: TA1535, Metabolic Activation: NONE, Method: PREINCUBATION
[4] = Test System: AMES SALMONELLA TYPHIMURIUM, Strain/Indicator: TA1537, Metabolic Activation: NONE, Method: PREINCUBATION
[5] = Test System: AMES SALMONELLA TYPHIMURIUM, Strain/Indicator: TA98, Metabolic Activation: RAT, LIVER, S-9, AROCLOR 1254, Method: STANDARD PLATE

In the case of `NCc1ccc(CN)cc1`, the mutagenic call (End Point: IN VITRO CHROMOSOMAL ABERRATIONS, Test System: CHL CELLS, Metabolic Activation: NONE) is reported as “inactive; negative”, the mutagenic call (End Point: IN VITRO CHROMOSOMAL ABERRATIONS, Test System: CHL CELLS, Metabolic Activation: RAT, LIVER, S-9, SODIUM PHENOBARBITAL AND 5,6-BENZOFLAVONE) is reported as “inactive; negative” and the mutagenic call [1] is reported as “inactive; negative”. The mutagenic call (Test System: AMES SALMONELLA TYPHIMURIUM, Strain/Indicator: TA98, Metabolic Activation: RAT, LIVER, S-9, PHENOBARBITAL AND BETA-NAPHTHOFLAVONE, Method: PREINCUBATION) was “inactive; negative”, the mutagenic call [2] was “inactive; negative” and the mutagenic call (Test System: AMES SALMONELLA TYPHIMURIUM, Strain/Indicator: TA100, Metabolic Activation: RAT, LIVER, S-9, PHENOBARBITAL AND BETA-NAPHTHOFLAVONE, Method: PREINCUBATION) was “inactive; negative”. The mutagenic call (Test System: AMES SALMONELLA TYPHIMURIUM, Strain/Indicator: TA102, Metabolic Activation: NONE, Method: PREINCUBATION) was “inactive; negative”, the mutagenic call (Test System: AMES SALMONELLA TYPHIMURIUM, Strain/Indicator: TA102, Metabolic Activation: RAT, LIVER, S-9, PHENOBARBITAL AND BETA-NAPHTHOFLAVONE, Method: PREINCUBATION) was “inactive; negative” and the mutagenic call [3] was “inactive; negative”. The mutagenic call (Test System: AMES SALMONELLA TYPHIMURIUM, Strain/Indicator: TA1535, Metabolic Activation: RAT, LIVER, S-9, PHENOBARBITAL AND BETA-NAPHTHOFLAVONE, Method: PREINCUBATION) was “inactive; negative”, the mutagenic call [4] was “inactive; negative” and the mutagenic call (Test System: AMES SALMONELLA TYPHIMURIUM, Strain/Indicator: TA1537, Metabolic Activation: RAT, LIVER, S-9, PHENOBARBITAL AND BETA-NAPHTHOFLAVONE, Method: PREINCUBATION) was “inactive; negative”. The mutagenic call (Test System: E. COLI, Strain/Indicator: WP2UVRA/PKM101, Metabolic Activation: NONE, Method: PREINCUBATION) was “inactive; negative”, the mutagenic call (Test System: E. COLI, Strain/Indicator: WP2UVRA/PKM101, Metabolic Activation: RAT, LIVER, S-9, PHENOBARBITAL AND BETA-NAPHTHOFLAVONE, Method: PREINCUBATION) was “inactive; negative” and the mutagenic call (Test System: E. COLI, Strain/Indicator: WP2UVRA/PKM101, Metabolic Activation: RAT, LIVER, S-9, SODIUM PHENOBARBITAL AND 5,6-BENZOFLAVONE, Method: PREINCUBATION) was “inactive; negative”. The mutagenic call (Test System: E. COLI, Strain/Indicator: WP2UVRA, Metabolic Activation: NONE, Method: PREINCUBATION) was “inactive; negative” and the mutagenic call (Test System: E. COLI, Strain/Indicator: WP2UVRA, Metabolic Activation: RAT, LIVER, S-9, PHENOBARBITAL AND BETA-NAPHTHOFLAVONE, Method: PREINCUBATION) was “inactive; negative”.
With `O=P(O)(O)OC1C(OP(=O)(O)O)C(OP(=O)(O)O)C(OP(=O)(O)O)C(OP(=O)(O)O)C1OP(=O)(O)O` (stereo not given) the mutagenic call (Test System: MOUSE LYMPHOMA, Strain/Indicator: L5178Y (TK+/TK-), Metabolic Activation: NONE, Method: SUSPENSION/PLATE) was “inactive; negative. reevaluation of results: negative” and the mutagenic call (Test System: MOUSE LYMPHOMA, Strain/Indicator: L5178Y (TK+/TK-), Metabolic Activation: RAT, LIVER, S-9, AROCLOR 1254, Method: SUSPENSION/PLATE) was “inactive; negative. reevaluation of results: negative”.
For `CC(=O)/C=C/c1ccccc1`, the mutagenic call (Test System: AMES SALMONELLA TYPHIMURIUM, Strain/Indicator: TA98, Metabolic Activation: HAMSTER, LIVER, S-9, AROCLOR 1254, Method: STANDARD PLATE) was “inactive; negative”, the mutagenic call (Test System: AMES SALMONELLA TYPHIMURIUM, Strain/Indicator: TA98, Metabolic Activation: NONE, Method: STANDARD PLATE) was “inactive; negative” and the mutagenic call [5] was “inactive; negative”. The mutagenic call (Test System: AMES SALMONELLA TYPHIMURIUM, Strain/Indicator: TA100, Metabolic Activation: HAMSTER, LIVER, S-9, AROCLOR 1254, Method: STANDARD PLATE) was “active; positive”, the mutagenic call (Test System: AMES SALMONELLA TYPHIMURIUM, Strain/Indicator: TA100, Metabolic Activation: NONE, Method: STANDARD PLATE) was “inactive; negative” and the mutagenic call (Test System: AMES SALMONELLA TYPHIMURIUM, Strain/Indicator: TA100, Metabolic Activation: RAT, LIVER, S-9, AROCLOR 1254, Method: STANDARD PLATE) was “active; positive”. The mutagenic call (Test System: Mouse lymphoma, Strain/Indicator: L5178Y (tk+/tk-), Metabolic Activation: None, Method: Suspension/plate) was “active; positive” and the mutagenic call (Test System: Mouse lymphoma, Strain/Indicator: L5178Y (tk+/tk-), Metabolic Activation: Rat, Liver, S-9, Aroclor 1254, Method: Suspension/plate) was “inactive; negative”.
With `CC1CC(C)C(=O)C1=O` (stereo not given) the mutagenic call [1] was “inactive; negative”, the mutagenic call (Test System: AMES SALMONELLA TYPHIMURIUM, Strain/Indicator: TA98, Metabolic Activation: S-9, Method: PREINCUBATION) was “inactive; negative” and the mutagenic call [2] was “inactive; negative”. The mutagenic call (Test System: AMES SALMONELLA TYPHIMURIUM, Strain/Indicator: TA100, Metabolic Activation: S-9, Method: PREINCUBATION) was “inactive; negative”, the mutagenic call [3] was “inactive; negative” and the mutagenic call (Test System: AMES SALMONELLA TYPHIMURIUM, Strain/Indicator: TA1535, Metabolic Activation: S-9, Method: PREINCUBATION) was “inactive; negative”. For the same compound, the mutagenic call [4] was “inactive; negative”, the mutagenic call (Test System: AMES SALMONELLA TYPHIMURIUM, Strain/Indicator: TA1537, Metabolic Activation: S-9, Method: PREINCUBATION) was “inactive; negative” and the mutagenic call (Test System: E.COLI, Strain/Indicator: WP2 UVRA, Metabolic Activation: NONE, Method: PREINCUBATION) was “inactive; negative”. The mutagenic call (Test System: E.COLI, Strain/Indicator: WP2 UVRA, Metabolic Activation: S-9, Method: PREINCUBATION) was “inactive; negative”.
In the case of `Cc1cnc2c(ccc3c2nc(N)n3C)n1`, the mutagenic call (Test System: AMES SALMONELLA TYPHIMURIUM, Strain/Indicator: TA98, Metabolic Activation: RAT, LIVER, S-9, AROCLOR 1254, Method: PREINCUBATION) is reported as “active; positive” and the mutagenic call [5] is reported as “active; positive”.
`O=[N+]([O-])c1ccc(-c2csc(Nc3ccccc3)n2)o1` was tested, and the mutagenic call (Test System: E. COLI WP2, Strain/Indicator: WP2, Metabolic Activation: NONE, Method: SPOT) was “active; positive”.

Source: PubChem BioAssay AID1259407 (Chemical Carcinogenesis Research Information System (CCRIS), 2018)
